Laboratory results reported in patent US10206937B2, “Boronic acid derivatives and therapeutic uses thereof” (Qpex Biopharma, Inc., priority 2014, dated 2019).

System: strains of Enterobacteriaceae producing various carbapenemases (class A, D and B; 169 strains)
Experiment: Meropenem or tebipenem potentiation by Compounds 97 or 62 (MIC)
Format: cell-based
How it was run: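 Meropenem and tebipenem MICs measured alone or with Compound 97 or 62 held at a fixed 8 μg/ml in the growth medium. Panel of 169 clinical Enterobacteriaceae isolates expressing class A, D and B carbapenemases, alone or with other beta-lactamases.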

C[C@@H](O)[C@H]1C(=O)N2C(C(=O)O)=C(S[C@@H]3CN[C@H](C(=O)N(C)C)C3)[C@H](C)[C@H]12 [M]
Meropenem MIC alone (M) (KP1182 Klebsiella pneumoniae SHV-OSBL(2b), NDM-1, OXA-232(c)): Z (MIC of greater than 10 μg/mL)
Meropenem MIC alone (M) (KP1183 Klebsiella pneumoniae SHV-OSBL(2b), TEM-OSBL(2b), CTX-M-15, NDM-1): Z (MIC of greater than 10 μg/mL)
Meropenem MIC alone (M) (KP1184 Klebsiella pneumoniae SHV-OSBL(2b), IMP-1): Y (MIC of 1 μg/mL to 10 μg/mL)
Meropenem MIC alone (M) (KP1185 Klebsiella pneumoniae SHV-OSBL(2b), TEM-OSBL(2b), IMP-4): Z (MIC of greater than 10 μg/mL)
Meropenem MIC alone (M) (KP1186 Klebsiella pneumoniae CTX-M-15, NDM-1): Z (MIC of greater than 10 μg/mL)
Meropenem MIC alone (M) (KP1187 Klebsiella pneumoniae SHV-55(2be), TEM-OSBL(2b), CTX-M-15, NDM-1): Z (MIC of greater than 10 μg/mL)
Meropenem MIC alone (M) (KP1188 Klebsiella pneumoniae SHV-OSBL(2b), CTX-M-15, NDM-1): Y (MIC of 1 μg/mL to 10 μg/mL)
Meropenem MIC alone (M) (KP1189 Klebsiella pneumoniae TEM-OSBL(2b), CTX-M-15, CTX-M-27, NDM-1): Z (MIC of greater than 10 μg/mL)
Meropenem MIC alone (M) (KP1190 Klebsiella pneumoniae KPC-4 VIM-4 TEM SHV): Z (MIC of greater than 10 μg/mL)
Meropenem MIC alone (M) (KP1191 Klebsiella pneumoniae KPC-2): Z (MIC of greater than 10 μg/mL)
Meropenem MIC alone (M) (KP1192 Klebsiella pneumoniae KPC-2 TEM SHV): Z (MIC of greater than 10 μg/mL)
Meropenem MIC alone (M) (KP1193 Klebsiella pneumoniae KPC-3 TEM SHV): Z (MIC of greater than 10 μg/mL)
Meropenem MIC alone (M) (KP1194 Klebsiella pneumoniae KPC TEM SHV): Z (MIC of greater than 10 μg/mL)
Meropenem MIC alone (M) (KP1195 Klebsiella pneumoniae KPC TEM CTX-M-15): Z (MIC of greater than 10 μg/mL)
Meropenem MIC alone (M) (KP1196 Klebsiella pneumoniae KPC TEM SHV CTX-M-15 CMY): Z (MIC of greater than 10 μg/mL)
Meropenem MIC alone (M) (KP1197 Klebsiella pneumoniae KPC-3, VIM-1 TEM SHV): Z (MIC of greater than 10 μg/mL)
Meropenem MIC alone (M) (KP1198 Klebsiella pneumoniae KPC-3, VIM-1 TEM SHV): Z (MIC of greater than 10 μg/mL)
Meropenem MIC alone (M) (KP1199 Klebsiella pneumoniae KPC-3 TEM SHV): Z (MIC of greater than 10 μg/mL)
Meropenem MIC alone (M) (KP1200 Klebsiella pneumoniae KPC-3 TEM SHV): Z (MIC of greater than 10 μg/mL)
Meropenem MIC alone (M) (KP1210 Klebsiella pneumoniae KPC SHV TEM): Z (MIC of greater than 10 μg/mL)
Meropenem MIC alone (M) (KP1211 Klebsiella pneumoniae KPC SHV TEM CTX-M-15): Z (MIC of greater than 10 μg/mL)
Meropenem MIC alone (M) (KP1212 Klebsiella pneumoniae KPC SHV TEM CTX-M-15): Z (MIC of greater than 10 μg/mL)
Meropenem MIC alone (M) (KP1213 Klebsiella pneumoniae KPC SHV TEM CTX-M-15): Z (MIC of greater than 10 μg/mL)
Meropenem MIC alone (M) (KP1214 Klebsiella pneumoniae KPC SHV TEM + 1.9 kb): Z (MIC of greater than 10 μg/mL)
Meropenem MIC alone (M) (KP1215 Klebsiella pneumoniae KPC SHV): Z (MIC of greater than 10 μg/mL)
Meropenem MIC alone (M) (KP1216 Klebsiella pneumoniae KPC SHV TEM + 1.9 kb): Z (MIC of greater than 10 μg/mL)
Meropenem MIC alone (M) (KP1217 Klebsiella pneumoniae KPC SHV TEM + 1.9 kb): Z (MIC of greater than 10 μg/mL)
Meropenem MIC alone (M) (KP1218 Klebsiella pneumoniae KPC SHV TEM + 1.9 kb): Z (MIC of greater than 10 μg/mL)
Meropenem MIC alone (M) (KP1219 Klebsiella pneumoniae KPC SHV TEM + 1.9 kb): Z (MIC of greater than 10 μg/mL)
Meropenem MIC alone (M) (KP1220 Klebsiella pneumoniae KPC SHV TEM + 1.9 kb): Z (MIC of greater than 10 μg/mL)
Meropenem MIC alone (M) (KP1221 Klebsiella pneumoniae KPC SHV TEM + 1.9 kb): Z (MIC of greater than 10 μg/mL)
Meropenem MIC alone (M) (KP1222 Klebsiella pneumoniae KPC SHV TEM IMP): Z (MIC of greater than 10 μg/mL)
Meropenem MIC alone (M) (KP1223 Klebsiella pneumoniae KPC SHV TEM): Z (MIC of greater than 10 μg/mL)
Meropenem MIC alone (M) (KP1224 Klebsiella pneumoniae KPC SHV TEM): Z (MIC of greater than 10 μg/mL)
Meropenem MIC alone (M) (KP1225 Klebsiella pneumoniae KPC SHV TEM + 1.9 kb CMY): Z (MIC of greater than 10 μg/mL)
Meropenem MIC alone (M) (KP1226 Klebsiella pneumoniae KPC SHV TEM + 1.9 kb): Z (MIC of greater than 10 μg/mL)
Meropenem MIC alone (M) (KP1227 Klebsiella pneumoniae KPC SHV TEM CTX-M-15): Z (MIC of greater than 10 μg/mL)
Meropenem MIC alone (M) (KP1228 Klebsiella pneumoniae OXA-48 TEM SHV CTX-M-15): Y (MIC of 1 μg/mL to 10 μg/mL)
Meropenem MIC alone (M) (KP1229 Klebsiella pneumoniae OXA-48 TEM SHV CTX-M-15): Z (MIC of greater than 10 μg/mL)
Meropenem MIC alone (M) (KP1230 Klebsiella pneumoniae OXA-48 TEM SHV CTX-M-15): Y (MIC of 1 μg/mL to 10 μg/mL)
Meropenem MIC alone (M) (KP1231 Klebsiella pneumoniae OXA-48 TEM SHV CTX-M-15): Y (MIC of 1 μg/mL to 10 μg/mL)
Meropenem MIC alone (M) (KP1232 Klebsiella pneumoniae OXA-48 TEM SHV CTX-M-15): Z (MIC of greater than 10 μg/mL)
Meropenem MIC alone (M) (KP1234 Klebsiella pneumoniae OXA-48 TEM SHV CTX-M-15): Z (MIC of greater than 10 μg/mL)
Meropenem MIC alone (M) (KP1236 Klebsiella pneumoniae OXA-48 TEM SHV CTX-M-15): Z (MIC of greater than 10 μg/mL)
Meropenem MIC alone (M) (PM1024 Proteus mirabilis TEM-1(2b), CMY-16, VIM-1): Z (MIC of greater than 10 μg/mL)
Meropenem MIC alone (M) (PM1025 Proteus mirabilis SHV-5(2be), TEM-OSBL(2b), VEB-2, VIM-1): Y (MIC of 1 μg/mL to 10 μg/mL)
Meropenem MIC alone (M) (PM1026 Proteus mirabilis DHA-1, IMP-26): Z (MIC of greater than 10 μg/mL)
Meropenem MIC alone (M) (PM1027 Proteus mirabilis VIM-5): Z (MIC of greater than 10 μg/mL)
Meropenem MIC alone (M) (SM1023 Serratia marcescens VIM-4): Z (MIC of greater than 10 μg/mL)
Meropenem MIC alone (M) (SM1024 Serratia marcescens TEM-1(2b), IMP-47): Y (MIC of 1 μg/mL to 10 μg/mL)
